Laboratory results published in PubChem BioAssay AID248 (DTP/NCI, 2004).
“And” between values parts separate entries of the source, which are not always exact repeats. Equal values may be shown once. Toxic doses and inconclusive results are not listed.

Tested on: L1210 leukemia ip in BDF1 mice, survival T/C
Assay: NCI In Vivo Anticancer Drug Screen. Data for tumor model L1210 Leukemia (intraperitoneal) in B6D2F1 (BDF1) mice
Conditions: endpoint: mean survival time, higher = longer survival
Procedure, shortened: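 Each compound was tested against a transplantable tumor grown in mice. The endpoint was survival, with treated animals benchmarked against vehicle controls as a simple ratio.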

[1] = dose: 100.0 mg/kg/injection, schedule: Q01DX009 (ip), vehicle: Klucel (hydroxypropylcellulose) (HPC)
[2] = dose: 200.0 mg/kg/injection, schedule: Q01DX009 (ip), vehicle: Klucel (hydroxypropylcellulose) (HPC)
[3] = dose: 100.0 mg/kg/injection, schedule: Q01DX001 (ip), vehicle: saline
[4] = dose: 200.0 mg/kg/injection, schedule: Q01DX001 (ip), vehicle: saline
[5] = dose: 400.0 mg/kg/injection, schedule: Q01DX001 (ip), vehicle: saline
[6] = dose: 100.0 mg/kg/injection, schedule: Q04DX003 (ip), vehicle: Klucel (hydroxypropylcellulose) (HPC)
[7] = dose: 200.0 mg/kg/injection, schedule: Q04DX003 (ip), vehicle: Klucel (hydroxypropylcellulose) (HPC)
[8] = dose: 400.0 mg/kg/injection, schedule: Q04DX003 (ip), vehicle: Klucel (hydroxypropylcellulose) (HPC)
[9] = dose: 100.0 mg/kg/injection, schedule: Q04DX002 (ip), vehicle: Klucel (hydroxypropylcellulose) (HPC)
[10] = dose: 200.0 mg/kg/injection, schedule: Q04DX002 (ip), vehicle: Klucel (hydroxypropylcellulose) (HPC)

`CCCCCCCCCCCCCCCCCC(=O)N/N=C/c1ccc(Cl)cc1` was tested, and the T/C [1] was 101 % of control and 88 % of control, the T/C [2] was 102 % of control and the T/C (dose: 400.0 mg/kg/injection, schedule: Q01DX009 (ip), vehicle: Klucel (hydroxypropylcellulose) (HPC)) was 98 % of control and 92 % of control.
In the case of `NC(=O)c1ncn(C2CCCC2O)c1N` (stereo not given), the T/C [3] was 91 % of control, the T/C [4] was 102 % of control and the T/C [5] was 86 % of control.
For `Nc1ccc(S(N)(=O)=O)cc1`, the T/C [6] was 114 % of control, the T/C [7] was 95 % of control and the T/C [8] was 92 % of control.
With `CCCCCCCCC(N)C(=O)O` (stereo not given) the T/C (dose: 25.0 mg/kg/injection, schedule: Q04DX002 (ip), vehicle: gum acacia) was 107 % of control, the T/C (dose: 50.0 mg/kg/injection, schedule: Q04DX002 (ip), vehicle: Klucel (hydroxypropylcellulose) (HPC)) was 91 % of control and the T/C (dose: 50.0 mg/kg/injection, schedule: Q04DX002 (ip), vehicle: gum acacia) was 95 % of control. The T/C [9] was 98 % of control, the T/C (dose: 100.0 mg/kg/injection, schedule: Q04DX002 (ip), vehicle: gum acacia) was 114 % of control and the T/C [10] was 95 % of control.
`CCCCCCCCCCCNC=O` was tested, and the T/C [3] was 103 % of control, the T/C [4] was 101 % of control and the T/C [5] was 101 % of control.
For `O=c1c(N=Nc2ccc(Cl)cc2)c(O)n(-c2ccccc2)c(=S)n1-c1ccccc1`, the T/C (dose: 37.5 mg/kg/injection, schedule: Q01DX001 (ip), vehicle: other) was 94 % of control, the T/C (dose: 75.0 mg/kg/injection, schedule: Q01DX001 (ip), vehicle: other) was 107 % of control and the T/C (dose: 150.0 mg/kg/injection, schedule: Q01DX001 (ip), vehicle: other) was 96 % of control.
`CCCCCCCCSC(=S)S.[Fe]` was tested, and the T/C [9] was 88 % of control, the T/C [10] was 95 % of control and the T/C (dose: 400.0 mg/kg/injection, schedule: Q04DX002 (ip), vehicle: Klucel (hydroxypropylcellulose) (HPC)) was 91 % of control.
In the case of `CC1CN=C(c2ccc(NC(=O)Nc3ccc(C(=O)Nc4ccc(C5=NCC(C)N5)cc4)cc3)cc2)N1` (stereo not given), the T/C (dose: 0.23 mg/kg/injection, schedule: Q01DX009 (ip), vehicle: saline) was 96 % of control, the T/C (dose: 0.94 mg/kg/injection, schedule: Q01DX009 (ip), vehicle: saline) was 96 % of control and the T/C (dose: 7.5 mg/kg/injection, schedule: Q01DX Z (ip), vehicle: saline) was 150 % of control. The T/C (dose: 15.0 mg/kg/injection, schedule: Q01DX Z (ip), vehicle: other) was 204 % of control, the T/C (dose: 15.0 mg/kg/injection, schedule: Q01DX Z (ip), vehicle: saline) was 277 % of control and the T/C (dose: 15.0 mg/kg/injection, schedule: Q01DX Z (oral), vehicle: saline) was 103 % of control. For the same compound, the T/C (dose: 30.0 mg/kg/injection, schedule: Q01DX Z (ip), vehicle: other) was 115 % of control, the T/C (dose: 30.0 mg/kg/injection, schedule: Q01DX Z (oral), vehicle: saline) was 103 % of control and the T/C (dose: 60.0 mg/kg/injection, schedule: Q01DX Z (oral), vehicle: saline) was 103 % of control. For the same compound, the T/C (dose: 120.0 mg/kg/injection, schedule: Q01DX Z (oral), vehicle: saline) was 102 % of control.
In the case of `CC1=CC2C(O)(CC(CO)=CC3C4C(C)(C)C4(O)C(O)C(C)C32O)C1=O` (stereo not given), the T/C (dose: 50.0 mg/kg/injection, schedule: Q01DX001 (ip), vehicle: saline sonified) was 112 % of control, the T/C (dose: 100.0 mg/kg/injection, schedule: Q01DX001 (ip), vehicle: saline sonified) was 101 % of control and the T/C (dose: 200.0 mg/kg/injection, schedule: Q01DX001 (ip), vehicle: saline sonified) was 91 % of control.
`O=C(Cc1ccccc1)Cc1ccccc1` was tested, and the T/C (dose: 25.0 mg/kg/injection, schedule: Q01DX009 (ip), vehicle: water) was 104 % of control, the T/C (dose: 50.0 mg/kg/injection, schedule: Q01DX009 (ip), vehicle: water) was 115 % of control and the T/C (dose: 100.0 mg/kg/injection, schedule: Q01DX009 (ip), vehicle: water) was 104 % of control. The T/C (dose: 200.0 mg/kg/injection, schedule: Q01DX009 (ip), vehicle: water) was 94 % of control and the T/C (dose: 400.0 mg/kg/injection, schedule: Q01DX009 (ip), vehicle: water) was 94 % of control.
`COc1cc2c(c(OC)c1OC)-c1cc(I)c(O)cc1[C@@H](NC(C)=O)CC2` was tested, and the T/C (dose: 8.0 mg/kg/injection, schedule: Q01DX Z (ip), vehicle: carboxymethylcellulose (CMC)) was 104 % of control, the T/C (dose: 11.0 mg/kg/injection, schedule: Q01DX009 (ip), vehicle: saline with Tween-80) was 114 % of control and the T/C (dose: 12.0 mg/kg/injection, schedule: Q01DX Z (ip), vehicle: carboxymethylcellulose (CMC)) was 109 % of control. For the same compound, the T/C (dose: 16.5 mg/kg/injection, schedule: Q01DX009 (ip), vehicle: saline with Tween-80) was 115 % of control, the T/C (dose: 18.0 mg/kg/injection, schedule: Q01DX Z (ip), vehicle: carboxymethylcellulose (CMC)) was 119 % of control and the T/C (dose: 25.0 mg/kg/injection, schedule: Q01DX009 (ip), vehicle: saline with Tween-80) was 110 % of control. For the same compound, the T/C (dose: 28.0 mg/kg/injection, schedule: Q01DX Z (ip), vehicle: carboxymethylcellulose (CMC)) was 118 % of control, the T/C (dose: 28.0 mg/kg/injection, schedule: Q01DX Z (ip), vehicle: saline) was 123 % of control and the T/C (dose: 40.0 mg/kg/injection, schedule: Q01DX015 (ip), vehicle: carboxymethylcellulose (CMC)) was 104 % of control. For the same compound, the T/C (dose: 44.0 mg/kg/injection, schedule: Q04DX003 (ip), vehicle: saline sonified) was 100 % of control, the T/C (dose: 45.0 mg/kg/injection, schedule: Q01DX Z (ip), vehicle: saline) was 122 % of control and the T/C (dose: 50.0 mg/kg/injection, schedule: Q01DX001 (ip), vehicle: carboxymethylcellulose (CMC)) was 124 % of control. The T/C (dose: 65.0 mg/kg/injection, schedule: Q01DX Z (ip), vehicle: saline) was 105 % of control, the T/C (dose: 66.0 mg/kg/injection, schedule: Q04DX003 (ip), vehicle: saline sonified) was 107 % of control and the T/C (dose: 100.0 mg/kg/injection, schedule: Q01DX001 (ip), vehicle: carboxymethylcellulose (CMC)) was 120 % of control. For the same compound, the T/C (dose: 100.0 mg/kg/injection, schedule: Q01DX009 (ip), vehicle: saline sonified) was 124 % of control, the T/C (dose: 100.0 mg/kg/injection, schedule: Q01DX Z (ip), vehicle: carboxymethylcellulose (CMC)) was 122 % of control and the T/C (dose: 100.0 mg/kg/injection, schedule: Q04DX003 (ip), vehicle: saline sonified) was 108 % of control. The T/C (dose: 150.0 mg/kg/injection, schedule: Q04DX003 (ip), vehicle: saline sonified) was 124 % of control, the T/C [7] was 111 % of control and the T/C (dose: 400.0 mg/kg/injection, schedule: Q01DX009 (ip), vehicle: saline sonified) was 165 % of control. For the same compound, the T/C [8] was 96 % of control.
For `NS(=O)(=O)c1ccc(-c2ccc([As](=O)(O)O)cc2)cc1`, the T/C (dose: 5.0 mg/kg/injection, schedule: Q01DX001 (ip), vehicle: saline) was 96 % of control, the T/C (dose: 10.0 mg/kg/injection, schedule: Q01DX001 (ip), vehicle: saline) was 87 % of control and the T/C (dose: 20.0 mg/kg/injection, schedule: Q01DX001 (ip), vehicle: saline) was 98 % of control. The T/C (dose: 40.0 mg/kg/injection, schedule: Q01DX001 (ip), vehicle: saline) was 96 % of control and the T/C (dose: 80.0 mg/kg/injection, schedule: Q01DX001 (ip), vehicle: saline) was 98 % of control.
`C#CC(O)(c1ccccc1)c1ccc(N2CCOCC2)cc1` (stereo not given) was tested, and the T/C [6] was 96 % of control, the T/C [7] was 96 % of control and the T/C [8] was 96 % of control.
In the case of `CCCCNC(=O)Nc1ccc(Nc2ccccc2)cc1`, the T/C (dose: 100.0 mg/kg/injection, schedule: Q01DX009 (ip), vehicle: gum acacia) was 88 % of control, the T/C (dose: 100.0 mg/kg/injection, schedule: Q04DX003 (ip), vehicle: gum acacia) was 88 % of control and the T/C (dose: 200.0 mg/kg/injection, schedule: Q01DX009 (ip), vehicle: gum acacia) was 108 % of control. For the same compound, the T/C (dose: 200.0 mg/kg/injection, schedule: Q04DX003 (ip), vehicle: gum acacia) was 96 % of control and the T/C (dose: 400.0 mg/kg/injection, schedule: Q04DX003 (ip), vehicle: gum acacia) was 96 % of control.
In the case of `O=C(NNC(=S)NC1CC2C=CC1C2)c1cccnc1` (stereo not given), the T/C [1] was 111 % of control and the T/C [2] was 101 % of control.
For `CCCc1[nH]nc(C(=O)OC)c1N=NN(C)C`, the T/C (dose: 173.0 mg/kg/injection, schedule: Q01DX001 (ip), vehicle: other) was 110 % of control, the T/C (dose: 266.0 mg/kg/injection, schedule: Q01DX001 (ip), vehicle: other) was 112 % of control and the T/C (dose: 400.0 mg/kg/injection, schedule: Q01DX001 (ip), vehicle: other) was 115 % of control. The T/C (dose: 600.0 mg/kg/injection, schedule: Q01DX001 (ip), vehicle: other) was 123 % of control.
With `CC1=CC(C(=O)O)P(C)(=O)C1` (stereo not given) the T/C (dose: 100.0 mg/kg/injection, schedule: Q04DX002 (ip), vehicle: saline with Tween-80) was 92 % of control and the T/C (dose: 400.0 mg/kg/injection, schedule: Q04DX002 (ip), vehicle: saline with Tween-80) was 88 % of control.
